Source: patent publication US20260053794A1, “SOMATOSTATIN RECEPTOR 2 AGONISTS AND USES THEREOF” (Exelixis, Inc., priority 2022, published 2026)

Biological target: T1, Somatostatin Receptor 2 (SSTR2) (Homo sapiens, UniProt P30874)
T1 construct: expressed in transfected cells
Assay: Biochemical Assay for Activation of Somatostatin Receptor 2 (SSTR2), Cisbio HTRF cAMP assay
Assay type: cell-based
Conditions: average pEC50; HTRF cAMP assay in stably-transfected cell line expressing SSTR2; cells incubated with compounds for 1-2h
Protocol: Biochemical Assay for Activation of Somatostatin Receptor 2 (SSTR2)
Agonistic activation of SSTRs leads to an […] production of intracellular cAMP levels. Cisbio's homogeneous time-resolved fluorescence (HTRF) cAMP assay was used to measure cAMP concentration in an high-throughput format. Increase in intracellular cAMP concentrations was measuring using a stably-transfected cell line expressing SSTR2. Test compounds were dissolved in DMSO. Cells were incubated with compounds for 1-2h, and subsequently competitive binding of cAMP produced due to the activation of SSTR2 by the test compounds was measured using the Cisbio cAMP Gs dynamic assay system (Perkin Elmer, Bedford, MA).
The average pEC50 was determined for the test compounds.

T1 sequence (P30874 whole entry, species assumed): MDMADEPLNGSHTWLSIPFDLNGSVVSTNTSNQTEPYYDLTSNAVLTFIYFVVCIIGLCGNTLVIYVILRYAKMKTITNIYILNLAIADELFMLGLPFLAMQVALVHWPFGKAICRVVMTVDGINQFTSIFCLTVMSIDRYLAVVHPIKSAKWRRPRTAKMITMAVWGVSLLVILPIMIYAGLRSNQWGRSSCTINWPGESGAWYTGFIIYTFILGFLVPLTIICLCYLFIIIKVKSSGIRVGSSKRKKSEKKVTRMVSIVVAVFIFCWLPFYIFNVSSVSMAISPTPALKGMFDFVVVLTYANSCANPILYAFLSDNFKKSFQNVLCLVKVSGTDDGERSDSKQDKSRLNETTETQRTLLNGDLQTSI

Row | EC50 | SMILES
1 | 1580 nM | COc1cc(F)cc(-c2cnc3c(nc(-c4cc(F)cc(C(N)=O)c4)n3C)c2N2CCC(N)CC2)c1 [Compound 33]
2 | 631 nM | Cc1cc(F)cc(-c2cnc3[nH]c(-c4ccc5[nH]c(=O)[nH]c5c4)nc3c2N2CCC(N)CC2)c1 [Compound 62]
3 | 398 nM | Cn1c(-c2cccc(Br)c2O)nc2ncc(-c3cc(F)cc(F)c3)c(N3CCC(N)CC3)c21 [Compound 45]
4 | 25.1 nM | Cc1cc(C)cc(-c2cnc3c(c2N2CCC(N)CC2)C(=O)N(c2ccc(F)c(F)c2)CC3)c1 [Compound 112]
5 | 2000 nM | Cn1c(-c2cc(F)cc(C(N)=O)c2)nc2c(N3CCC(N)CC3)c(-c3cc(F)cc(F)c3)cnc21 [Compound 38]
6 | > 10000 nM | CO[C@@H]1CN(c2c(-c3cc(F)cc(F)c3)cnc3c2nc(-c2cccc(C#N)c2O)n3C)CC[C@H]1N [Compound 23, 3-(7-((3R,4R)-4-amino-3-methoxypiperidin-1-yl)-6-(3,5-difluorophenyl)-3-methyl-3H-imidazo[4,5-b]pyridin-2-yl)-2-hydroxybenzonitrile]
7 | > 10000 nM | CO[C@@H]1CN(c2c(-c3cc(F)cc(F)c3)cnc3c2nc(-c2ccc4[nH]c(=O)[nH]c4c2)n3C)CC[C@H]1N [Compound 25]
8 | > 10000 nM | Cn1c(-c2cccc(Br)c2O)nc2ncc(-c3cc(F)cc(F)c3)c(N3CCC(NC(=O)OC(C)(C)C)CC3)c21 [Compound 44]
9 | 2510 nM | CO[C@@H]1CN(c2c(-c3cc(C)cc(F)c3)cnc3[nH]c(-c4cccc(C#N)c4O)nc23)CC[C@H]1N [Compound 54]
10 | > 10000 nM | COc1cc(F)cc(-c2cnc3c(nc(-c4ccc5[nH]c(=O)[nH]c5c4)n3C)c2N2CC[C@@H](N)[C@H](OC)C2)c1 [Compound 31]
11 | 631 nM | COc1cc(F)cc(-c2cnc3[nH]c(-c4cccc(C#N)c4O)nc3c2N2CCC(N)CC2)c1 [Compound 59]
12 | > 10000 nM | Cc1cc(F)cc(-c2cnc3c(nc(-c4ccc5[nH]c(=O)[nH]c5c4)n3C)c2N2CCC(N)CC2)c1 [Compound 36]
13 | > 10000 nM | CO[C@@H]1CN(c2c(-c3cc(C)cc(F)c3)cnc3c2nc(-c2ccc4[nH]c(=O)[nH]c4c2)n3C)CC[C@H]1N [Compound 27]
14 | 2510 nM | O=C1NCCNC2CCN(CC2)c2c(-c3cc(F)cc(F)c3)cnc3ccc(cc23)-c2cccc1n2 [Compound 78, 23-(3,5-difluorophenyl)-4,7-diaza-2(6,4)-quinolina-1(2,6)-pyridina-3(1.4)-piperidina-cyclooctaphan-8-one]
15 | > 10000 nM | CO[C@@H]1CN(c2c(-c3cc(C)cc(F)c3)cnc3[nH]c(-c4ccc5[nH]c(=O)[nH]c5c4)nc23)CC[C@H]1N [Compound 55]
16 | > 5010 nM | CO[C@@H]1CN(c2c(-c3cc(F)cc(F)c3)cnc3c2nc(-c2cc(F)cc(C(N)=O)c2)n3C)CC[C@H]1N [Compound 24]
17 | 6.31 nM | O=C1NCCCNC2CCN(CC2)c2c(-c3cc(F)cc(F)c3)cnc3ccc(cc23)-c2cccc1n2 [Compound 80]
18 | 501 nM | CO[C@@H]1CN(c2c(-c3cc(F)cc(F)c3)cnc3[nH]c(-c4cccc(C#N)c4O)nc23)CC[C@H]1N [Compound 48]

Second part, the compound before the results:

Row | SMILES | EC50
19 | CNCCCn1c(=O)n(-c2ccc(F)c(F)c2)c(=O)c2cncc(-c3cc(F)cc(F)c3)c21 [Compound 118] | > 10000 nM
20 | Cc1cc(F)cc(-c2cnc3ccc4cc3c2N2CCC(CC2)NCC[C@@H](N=[N+]=[N-])COc2c(C#N)cccc2-4)c1 (single isomer, unassigned) [Compound 96] | 0.794 nM
21 | Cc1cc(F)cc(-c2cnc3ccc4cc3c2N2CCC(CC2)NC[C@H](O)CCOc2c(C#N)cccc2-4)c1 (single isomer, unassigned) [Compound 101] | 1580 nM
22 | Cc1cc(F)cc(-c2cnc3ccc(-c4cccc(C#N)c4O)cc3c2N2CCC(NC(=N)N)CC2)c1 [Compound 136] | 20 nM
23 | NC(=O)c1cccc2c1OCCCCNC1CCN(CC1)c1c(-c3cc(F)cc(F)c3)cnc3ccc-2cc13 [Compound 75] | 2 nM
24 | Cc1cc(F)cc(-c2cnc3ccc4cc3c2N2CCC(CC2)NCC[C@H](O)COc2c(C#N)cccc2-4)c1 (single isomer, unassigned) [Compound 103] | 3980 nM
25 | N#Cc1cccc2c1OCCCCCNC1CCN(CC1)c1c(-c3cc(F)cc(F)c3)cnc3ccc-2cc13 [Compound 71] | 0.158 nM
26 | Fc1cc(F)cc(-c2cnc3ccc4cc3c2N2CCC(CC2)NCCCCOc2cccc-4c2)c1 [Compound 68] | 7.94 nM
27 | NC(=O)c1cccc2c1OCCCNC1CCN(CC1)c1c(-c3cc(F)cc(F)c3)cnc3ccc-2cc13 [Compound 67] | 0.794 nM
28 | NC1CCN(c2c(-c3cc(F)cc(F)c3)cnc3sc(-c4cc(F)cc(F)c4)cc23)CC1 [Compound 134] | 631 nM
29 | N#Cc1cccc(-c2ccc3ncc(-c4cc(F)cc(F)c4)c(O[C@H]4CC[C@@H](N)C4)c3c2)c1O [Compound 16] | 200 nM
30 | Cc1cc(F)cc(-c2cnc3ccc4cc3c2N2CCC(CC2)NCC(CO)CCOc2c(C#N)cccc2-4)c1 (single isomer, unassigned) [Compound 90] | 15.8 nM
31 | NCCCN1Cc2ccc(F)cc2-c2cncc(-c3nc4cc(F)c(F)cc4[nH]3)c21 [Compound 108] | 126 nM
32 | COCOc1c(C#N)cccc1-c1ccc2ncc(-c3cc(F)cc(F)c3)c(OC3CCCC(NC(=O)OC(C)(C)C)C3)c2c1 (stereo not shown) [Compound 141] | > 10000 nM
33 | Cc1cc(F)cc(-c2cnc3ccc(-c4cc(F)cc(C(N)=O)c4)cc3c2O[C@H]2C[C@@H](N)C2)c1 [Compound 18] | 12.6 nM
34 | NC1CC(Oc2c(-c3cc(F)cc(F)c3)cnc3ccc(-c4cc(F)cc(F)c4)cc23)C1 (stereo not shown) [Compound 17] | 12.6 nM
35 | Cc1cc(F)cc(-c2cnc3ccc(-c4cc(F)cc(C(N)=O)c4)cc3c2O[C@H]2CC[C@H](N)C2)c1 [Compound 1, 3-(4-(((1S,3S)-3-aminocyclopentyl)oxy)-3-(3-fluoro-5-methylphenyl)quinolin-6-yl)-5-fluorobenzamide] | 0.316 nM
36 | NCc1cc(-c2cc(F)cc(F)c2)cc2c(N3CCC(N)CC3)c(-c3cc(F)cc(F)c3)cnc12 [Compound 159] | 0.398 nM
37 | Cc1cc(F)cc(-c2cnc3ccc4cc3c2N2CCC(CC2)NCC[C@@H](O)COc2c(C#N)cccc2-4)c1 (single isomer, unassigned) [Compound 102] | 398 nM
38 | N#Cc1cccc(-c2ccc3ncc(-c4cc(F)cc(F)c4)c(N4CC5(CNC5)C4)c3c2)c1O [Compound 137] | > 10000 nM
39 | COCOc1c(C#N)cccc1-c1ccc2ncc(-c3cc(F)cc(F)c3)c(O[C@H]3CC[C@@H](NC(=O)OC(C)(C)C)C3)c2c1 [Compound 140] | > 10000 nM
40 | NC1CCN(c2c(-c3cc(F)cc(F)c3)cnc3ccc(-c4cc(F)cc(F)c4)cc23)CC1 [Compound 145] | 0.0316 nM
41 | Cc1cc(F)cc(-c2cnc3ccc(-c4ccccc4C4NCCCN4)cc3c2N2CCC(=O)CC2)c1 [Compound 162] | 1000 nM
42 | CC(N)CCN1Cc2ccc(F)cc2-c2cncc(C(=O)Nc3ccc(F)c(F)c3)c21 (stereo not shown) [Compound 109, 5-(3-aminobutyl)-N-(3,4-difluorophenyl)-9-fluoro-6H-benzo [c][1,6]naphthyridine-4-carboxamide] | 200 nM
43 | Cc1cc(F)cc(-c2cnc3ccc4cc3c2N2CCC(CC2)NCC[C@H](N=[N+]=[N-])COc2c(C#N)cccc2-4)c1 (single isomer, unassigned) [Compound 97] | 2.51 nM
